Values quoted from earlier work, collected in patent US20220313608A1, “TREATMENT OF BREAST CANCER” (SynCore Biotechnology Co., Ltd., priority 2015, published 2022).

Tested on: metastatic breast cancer patients
Settings: first-line, gemcitabine 1250 mg/m^2 days 1 and 8, paclitaxel 175 mg/m^2 triweekly

- frequency of alteration of hepatic function: 2%
Compound: CC(=O)O[C@H]1C(=O)[C@@]2(C)[C@H]([C@H](OC(=O)c3ccccc3)[C@]3(O)C[C@H](OC(=O)[C@H](O)[C@@H](NC(=O)c4ccccc4)c4ccccc4)C(C)=C1C3(C)C)[C@]1(OC(C)=O)CO[C@@H]1C[C@@H]2O [paclitaxel]
